Patent publication US20260262643A1, “HERBICIDAL BENZOXAZINES” (FMC CORPORATION, priority 2022, published 2026)

Key:
[1] = test system: oat, wild; assay: Test C preemergence; type: in vivo, Avena fatua
Procedure, shortened: (§1)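 Soil-applied (pre) and foliar (post, 1–2 leaf, 2–10 cm) sprays; surfactant-containing non-phytotoxic solvent vehicle; loam/sand substrate. Readout: visual % control at 10 d, greenhouse, versus untreated.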

[2] = test system: foxtail, giant; assay: Test C preemergence; type: in vivo, Setaria faberi
Procedure, shortened: as §1

[3] = test system: ragweed; assay: Test C preemergence; type: in vivo, Ambrosia artemisiifolia
Procedure, shortened: as §1

[4] = test system: ryegrass, Italian; assay: Test C postemergence; type: in vivo, Lolium multiflorum; conditions: 10 days, 0 to 100 scale (0 no effect, 100 complete control)
Procedure, shortened: as §1

[5] = test system: blackgrass; assay: Test C postemergence; type: in vivo, Alopecurus myosuroides; conditions: 10 days, 0 to 100 scale (0 no effect, 100 complete control)
Procedure, shortened: as §1

[6] = test system: barnyardgrass; assay: Test C postemergence; type: in vivo, Echinochloa crusgalli; conditions: 10 days, 0 to 100 scale (0 no effect, 100 complete control)
Procedure, shortened: as §1

[7] = test system: soybean; assay: Test C preemergence; type: in vivo, Glycine max
Procedure, shortened: as §1

[8] = test system: ducksalad; assay: Test D flooded paddy test; type: in vivo, Heteranthera limosa; conditions: 250 g ai/ha, applied to paddy water, visual rating after 13 to 14 days, scale 0 to 100 (0 no effect, 100 complete control)
Procedure, shortened: (§2)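 2-leaf plants; flood 3 cm above soil; compound dosed into paddy water; greenhouse 13–14 d; visual rating vs controls, 0–100 (100 = complete control); dash = not tested.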

[9] = test system: ryegrass, Italian; assay: Test C preemergence; type: in vivo, Lolium multiflorum
Procedure, shortened: as §1

[10] = test system: horseweed; assay: Test C postemergence; type: in vivo, Erigeron canadensis; conditions: 10 days, 0 to 100 scale (0 no effect, 100 complete control)
Procedure, shortened: as §1

[11] = test system: corn; assay: Test C postemergence; type: in vivo, Zea mays; conditions: 10 days, 0 to 100 scale (0 no effect, 100 complete control)
Procedure, shortened: as §1

[12] = test system: rice; assay: Test D flooded paddy test; type: in vivo, Oryza sativa; conditions: 250 g ai/ha, applied to paddy water, visual rating after 13 to 14 days, scale 0 to 100 (0 no effect, 100 complete control)
Procedure, shortened: as §2

[13] = test system: soybean; assay: Test C postemergence; type: in vivo, Glycine max; conditions: 10 days, 0 to 100 scale (0 no effect, 100 complete control)
Procedure, shortened: as §1

[14] = test system: wheat; assay: Test C postemergence; type: in vivo, Triticum aestivum; conditions: 10 days, 0 to 100 scale (0 no effect, 100 complete control)
Procedure, shortened: as §1

[15] = test system: sedge, umbrella; assay: Test D flooded paddy test; type: in vivo, Cyperus difformis; conditions: 250 g ai/ha, applied to paddy water, visual rating after 13 to 14 days, scale 0 to 100 (0 no effect, 100 complete control)
Procedure, shortened: as §2

[16] = test system: oat, wild; assay: Test C postemergence; type: in vivo, Avena fatua; conditions: 10 days, 0 to 100 scale (0 no effect, 100 complete control)
Procedure, shortened: as §1

[17] = test system: blackgrass; assay: Test C preemergence; type: in vivo, Alopecurus myosuroides
Procedure, shortened: as §1

[18] = test system: corn; assay: Test C preemergence; type: in vivo, Zea mays
Procedure, shortened: as §1

[19] = test system: barnyardgrass; assay: Test C preemergence; type: in vivo, Echinochloa crusgalli
Procedure, shortened: as §1

[20] = test system: pigweed, palmer; assay: Test C postemergence; type: in vivo, Amaranthus palmeri; conditions: 10 days, 0 to 100 scale (0 no effect, 100 complete control)
Procedure, shortened: as §1

[21] = test system: ragweed; assay: Test C postemergence; type: in vivo, Ambrosia artemisiifolia; conditions: 10 days, 0 to 100 scale (0 no effect, 100 complete control)
Procedure, shortened: as §1

[22] = test system: galium; assay: Test C postemergence; type: in vivo, Galium aparine; conditions: 10 days, 0 to 100 scale (0 no effect, 100 complete control)
Procedure, shortened: as §1

[23] = test system: pigweed, palmer; assay: Test C preemergence; type: in vivo, Amaranthus palmeri
Procedure, shortened: as §1

[24] = test system: barnyardgrass; assay: Test D flooded paddy test; type: in vivo, Echinochloa crus-galli; conditions: 250 g ai/ha, applied to paddy water, visual rating after 13 to 14 days, scale 0 to 100 (0 no effect, 100 complete control)
Procedure, shortened: as §2

[25] = test system: foxtail, giant; assay: Test C postemergence; type: in vivo, Setaria faberi; conditions: 10 days, 0 to 100 scale (0 no effect, 100 complete control)
Procedure, shortened: as §1

[26] = test system: wheat; assay: Test C preemergence; type: in vivo, Triticum aestivum
Procedure, shortened: as §1

[27] = test system: kochia; assay: Test C preemergence; type: in vivo, Bassia scoparia
Procedure, shortened: as §1

[28] = test system: kochia; assay: Test C postemergence; type: in vivo, Bassia scoparia; conditions: 10 days, 0 to 100 scale (0 no effect, 100 complete control)
Procedure, shortened: as §1

[29] = 500 g ai/ha, preemergence, 0 to 100 scale (0 no effect, 100 complete control)
[30] = Preemergence, 125 g ai/ha, 0 to 100 scale, 0 no effect, 100 complete control

CCc1cc(C(=O)N2C[C@H](C)Oc3c(Cl)cccc32)cc(-n2cncn2)c1 [Compound 332]
90: Ryegrass, Italian plant response rating [9, 29] | Plant response rating, Soybean ([13]; Postemergence, 125 g ai/ha) | Barnyardgrass plant response rating [19, 29] | Plant response rating, Foxtail, Giant ([25]; 500 g ai/ha, postemergence)
20: Plant response rating, Wheat ([14]; 500 g ai/ha, postemergence) | Plant response rating, Wheat ([14]; Postemergence, 125 g ai/ha) | Corn plant response rating [18, 29] | Plant response rating, Corn [18, 30] | Plant response rating, Ragweed ([21]; 500 g ai/ha, postemergence) | Plant response rating, Pigweed, Palmer [23, 30]
70: Plant response rating, Foxtail, Giant [2, 30] | Plant response rating, Ryegrass, Italian ([4]; 500 g ai/ha, postemergence) | Plant response rating, Blackgrass ([5]; 500 g ai/ha, postemergence) | Plant response rating, Barnyardgrass ([6]; 500 g ai/ha, postemergence) | Plant response rating, Pigweed, Palmer ([20]; 500 g ai/ha, postemergence) | Plant response rating, Pigweed, Palmer ([20]; Postemergence, 125 g ai/ha) | Plant response rating, Galium ([22]; Postemergence, 125 g ai/ha)
0: Ragweed plant response rating [3, 29] | Plant response rating, Ragweed [3, 30] | Soybean plant response rating [7, 29] | Plant response rating, Soybean [7, 30] | Plant response rating, Ducksalad (Flood) [8] | Plant response rating, Horseweed ([10]; 500 g ai/ha, postemergence) | Plant response rating, Horseweed ([10]; Postemergence, 125 g ai/ha) | Plant response rating, Rice (Flood) [12] | Plant response rating, Sedge, Umbrella (Flood) [15] | Plant response rating, Ragweed ([21]; Postemergence, 125 g ai/ha) | Plant response rating, Barnyardgrass (Flood) [24] | Wheat plant response rating [26, 29] | Plant response rating, Wheat [26, 30] | Plant response rating, Kochia [27, 30]
30: Oat, Wild plant response rating [1, 29] | Plant response rating, Oat, Wild [1, 30] | Plant response rating, Blackgrass ([5]; Postemergence, 125 g ai/ha) | Plant response rating, Corn ([11]; 500 g ai/ha, postemergence) | Plant response rating, Corn ([11]; Postemergence, 125 g ai/ha) | Plant response rating, Oat, Wild ([16]; 500 g ai/ha, postemergence)
100: Foxtail, Giant plant response rating [2, 29] | Plant response rating, Soybean ([13]; 500 g ai/ha, postemergence) | Plant response rating, Galium ([22]; 500 g ai/ha, postemergence) | Pigweed, Palmer plant response rating [23, 29]
40: Plant response rating, Barnyardgrass ([6]; Postemergence, 125 g ai/ha) | Plant response rating, Foxtail, Giant ([25]; Postemergence, 125 g ai/ha)
50: Plant response rating, Barnyardgrass [19, 30] | Kochia plant response rating [27, 29]
10: Plant response rating, Oat, Wild ([16]; Postemergence, 125 g ai/ha) | Plant response rating, Kochia ([28]; Postemergence, 125 g ai/ha)
80: Blackgrass plant response rating [17, 29] | Plant response rating, Blackgrass [17, 30]
60: Plant response rating, Ryegrass, Italian ([4]; Postemergence, 125 g ai/ha) | Plant response rating, Ryegrass, Italian [9, 30] | Plant response rating, Kochia ([28]; 500 g ai/ha, postemergence)
